Data reported in US20090247527A1, “SUBSTITUTED GAMMA LACTAMS AS THERAPEUTIC AGENTS” (ALLERGAN, INC., priority 2008, published 2009).
“Also recorded” adds a separate entry of the source.

System: lashes and adjacent hairs of patients having glaucoma
Assay: Observation of lashes and adjacent hairs in glaucoma patients treated with bimatoprost in one eye
Assay type: in vivo, human
Conditions: glaucoma patients treated unilaterally; gross inspection and slit lamp biomicroscope
Description: In the course of treating patients having glaucoma, treatment may only be appropriate in one eye. […] The lash appearance on the lids of the treated eyes would have appeared quite attractive if it represented a bilateral phenomenon. As a result of its asymmetric nature, the long lashes on one side could be construed as disturbing from a cosmetic standpoint. A systemic examination was preformed as a result of the asymmetric phenomenon. It soon became apparent that this altered appearance was not an isolated finding. […] Definite differences could be identified to varying degrees in the lashes and adjacent hairs of all patients who were taking the drug on a unilateral basis for longer than 6 months.
The changes in the lashes were apparent on gross inspection in several patients once attention was focused on the issue. In those with light colored hair and lashes, the differences were only seen easily with the aid of the high magnification and lighting capabilities of the slit lamp biomicroscope. In the course of glaucoma follow-up examination, attention is generally immediately focused on the eye itself. As a result of the high power magnification needed only one eye is seen at a time and the eye is seen at a high enough power that the lashes are not in focus. […]

In the case of `CCNC(=O)CCC/C=C\C[C@@H]1[C@@H](/C=C/[C@@H](O)CCc2ccccc2)[C@H](O)C[C@@H]1O` [bimatoprost], the “lash / hair growth in treated eye versus non-treated eye” value is reported as “longer, thicker, and fuller in the treated eye than in the non-treated eye; also recorded: hair growth is stimulated”.
